Laboratory results from ChEMBL document CHEMBL5537136 (J Med Chem, 2024).
Active and inactive are the calls of the source. The calls are words filed in the database; no cut-off is given here.

Assays:
[1] = Toxicity in Balb/c mouse bearing mouse CT26 cells assessed as morphological changes in spleen at 6.25 to 25 mg/kg, IG measured after 14 days by hematoxylin and eosin staining based assay; assay type: organism-based; conditions: in vivo, po, 336 h, dose 6.25-25 mg/kg, time 14 day
[2] = Toxicity in Balb/c mouse bearing mouse CT26 cells assessed as body weight change at 6.25 to 25 mg/kg, IG measured after 14 days; assay type: organism-based; conditions: in vivo, po, 336 h, dose 6.25-25 mg/kg, time 14 day
CT26 [3] = experiment: cells; conditions: Mus musculus, CT26, 144 h
CT26 [4] = experiment: Antitumor activity in immunocompetent mouse CT26 cell bearing mouse model assessed as tumor growth inhibition at 6.25 mg/kg, IG treated twice a day measured after 14 days relative to control; assay type: functional; conditions: CT26, po, 336 h, time 14 day, read-out: TGI
CT26 [5] = experiment: Induction of anti-tumor immunity in mouse CT26 cells assessed as increase in IFN-beta mRNA expression incubated for 2 days by quantitative real-time PCR analysis; assay type: functional, cell-based; conditions: dose 0.04-0.44 µM, time 2.0 day
[6] = Half life in ICR mouse at 1 mg/kg, iv measured upto 24 hrs by LC-MS/MS analysis; assay type: ADME, organism-based; conditions: in vivo
CT26 [7] = experiment: Antitumor activity in immunocompetent Balb/c mouse CT26 cell bearing mouse model assessed as change in tumor cell morphology at 6.25 to 25 mg/kg, IG treated twice a day measured after 14 days by hematoxylin and eosin staining based assay; assay type: functional, organism-based; conditions: dose lower 6.25 mg/kg, dose upper […], time 14.0 day
[8] = AUC (0 to infinity) in ICR mouse at 10 mg/kg, IG measured upto 24 hrs by LC-MS/MS analysis; assay type: ADME, organism-based; conditions: in vivo, po
CT26 [9] = experiment: Antitumor activity in immunocompetent mouse CT26 cell bearing mouse model assessed as tumor growth inhibition at 12.5 mg/kg, IG treated twice a day measured after 14 days relative to control; assay type: functional; conditions: CT26, po, 336 h, time 14 day, read-out: TGI
CT26 [10] = experiment: Antitumor activity against mouse CT26 cells implanted in Balb/c mouse assessed as increase in infiltration of CD3 positive CD4 positive T lymphocytes in tumors at 25 mg/kg, IG measured after 14 days by flow cytometry; assay type: functional, organism-based; conditions: time 14.0 day
CT26 [11] = experiment: Antitumor activity against mouse CT26 cells implanted in Balb/c mouse assessed as increase in infiltration of CD3 positive CD8 positive T lymphocytes in tumors at 25 mg/kg, IG measured after 14 days by flow cytometry; assay type: functional, organism-based; conditions: time 14.0 day
[12] = Apparent volume of distribution in ICR mouse at 1 mg/kg, iv measured upto 24 hrs by LC-MS/MS analysis; assay type: ADME, organism-based; conditions: in vivo, read-out: Vz
[13] = Antiproliferative activity against mouse AML12 cells measured after 6 days incubation by MTT assay; assay type: toxicity, cell-based
[14] = Permeability across apical to basolateral side in human Caco-2 cells; assay type: ADME, cell-based
[15] = Half life in ICR mouse at 10 mg/kg, IG measured upto 24 hrs by LC-MS/MS analysis; assay type: ADME, organism-based; conditions: in vivo, po
[16] = Tmax in ICR mouse at 10 mg/kg, IG measured upto 24 hrs by LC-MS/MS analysis; assay type: ADME, organism-based; conditions: in vivo, po
CT26 [17] = experiment: Antitumor activity in immunocompetent mouse CT26 cell bearing Balb/c mouse model assessed as reduction in Ki-67 protein expression level in tumor tissue at 6.25 to 25 mg/kg, IG treated twice a day measured after 14 days; assay type: functional, organism-based; conditions: dose lower 6.25 mg/kg, dose upper […], time 14.0 day
[18] = biological target: T1, Protein mono-ADP-ribosyltransferase TIPARP (Mus musculus) (UniProt Q8C1B2); experiment: Inhibition of PARP7 in mouse CT26 cells assessed as increase in STAT1 phosphorylation incubated for 3 days by Western blot analysis; assay type: cell-based; conditions: dose 0.14-4 µM, time 3.0 day
T1 sequence (whole entry): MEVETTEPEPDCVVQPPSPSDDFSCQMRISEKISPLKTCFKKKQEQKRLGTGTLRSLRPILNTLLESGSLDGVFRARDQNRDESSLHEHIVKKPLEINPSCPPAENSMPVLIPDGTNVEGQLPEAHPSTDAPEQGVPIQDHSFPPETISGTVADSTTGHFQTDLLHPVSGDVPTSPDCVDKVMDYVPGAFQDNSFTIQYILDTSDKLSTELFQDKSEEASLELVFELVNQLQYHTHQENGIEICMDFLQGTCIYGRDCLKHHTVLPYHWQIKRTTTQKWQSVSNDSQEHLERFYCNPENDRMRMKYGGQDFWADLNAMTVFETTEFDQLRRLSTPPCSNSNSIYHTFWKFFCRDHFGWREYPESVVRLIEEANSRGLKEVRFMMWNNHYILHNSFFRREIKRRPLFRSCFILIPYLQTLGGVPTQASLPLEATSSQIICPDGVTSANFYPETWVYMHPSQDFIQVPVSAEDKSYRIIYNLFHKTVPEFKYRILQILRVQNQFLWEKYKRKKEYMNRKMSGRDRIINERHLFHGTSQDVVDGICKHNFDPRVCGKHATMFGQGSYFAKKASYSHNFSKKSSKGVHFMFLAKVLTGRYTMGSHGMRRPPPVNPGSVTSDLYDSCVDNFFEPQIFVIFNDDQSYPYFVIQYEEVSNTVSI

Cytochrome P450 2D6 = Cytochrome P450 2D6 (Homo sapiens, UniProt P10635); experiment: Inhibition of CYP2D6 (unknown origin); assay type: ADME
[19] = Oral bioavailability in ICR mouse at 10 mg/kg measured upto 24 hrs by LC-MS/MS analysis; assay type: ADME, organism-based; conditions: in vivo
CT26 [20] = experiment: Antitumor activity in immunocompetent mouse CT26 cell bearing mouse model assessed as tumor growth inhibition at 25 mg/kg, IG treated twice a day measured after 14 days relative to control; assay type: functional; conditions: CT26, po, 336 h, time 14 day, read-out: TGI
CT26 [21] = experiment: Induction of anti-tumor immunity in mouse CT26 cells assessed as increase in CXCL10 mRNA expression incubated for 2 days by quantitative real-time PCR analysis; assay type: functional, cell-based; conditions: dose 0.04-0.44 µM, time 2.0 day
[22] = Toxicity in Balb/c mouse bearing mouse CT26 cells assessed as morphological changes in kidney at 6.25 to 25 mg/kg, IG measured after 14 days by hematoxylin and eosin staining based assay; assay type: organism-based; conditions: in vivo, po, 336 h, dose 6.25-25 mg/kg, time 14 day
CT26 [23] = experiment: Antitumor activity in immunocompetent mouse CT26 cell bearing Balb/c mouse model assessed as induction of IFN-beta mRNA expression in tumor tissue treated IG twice a day measured after 14 days by quantitative real-time PCR analysis; assay type: functional; conditions: dose lower 6.25 mg/kg, dose upper […], time 14.0 day
[24] = Cmax in ICR mouse at 10 mg/kg, IG measured upto 24 hrs by LC-MS/MS analysis; assay type: ADME, organism-based; conditions: in vivo, po
[25] = MRT (0 to infinity) in ICR mouse at 1 mg/kg, iv measured upto 24 hrs by LC-MS/MS analysis; assay type: ADME, organism-based; conditions: in vivo
[26] = Tmax in ICR mouse at 1 mg/kg, iv measured upto 24 hrs by LC-MS/MS analysis; assay type: ADME, organism-based; conditions: in vivo
[27] = Clearance in ICR mouse at 1 mg/kg, iv measured upto 24 hrs by LC-MS/MS analysis; assay type: ADME, organism-based; conditions: in vivo
[28] = biological target: Protein mono-ADP-ribosyltransferase PARP14 (Homo sapiens, UniProt Q460N5); experiment: Inhibition of PARP14 (unknown origin) measured after 1 hr incubation by microplate reader assay
Chain of Protein mono-ADP-ribosyltransferase PARP14 (Q460N5 whole entry): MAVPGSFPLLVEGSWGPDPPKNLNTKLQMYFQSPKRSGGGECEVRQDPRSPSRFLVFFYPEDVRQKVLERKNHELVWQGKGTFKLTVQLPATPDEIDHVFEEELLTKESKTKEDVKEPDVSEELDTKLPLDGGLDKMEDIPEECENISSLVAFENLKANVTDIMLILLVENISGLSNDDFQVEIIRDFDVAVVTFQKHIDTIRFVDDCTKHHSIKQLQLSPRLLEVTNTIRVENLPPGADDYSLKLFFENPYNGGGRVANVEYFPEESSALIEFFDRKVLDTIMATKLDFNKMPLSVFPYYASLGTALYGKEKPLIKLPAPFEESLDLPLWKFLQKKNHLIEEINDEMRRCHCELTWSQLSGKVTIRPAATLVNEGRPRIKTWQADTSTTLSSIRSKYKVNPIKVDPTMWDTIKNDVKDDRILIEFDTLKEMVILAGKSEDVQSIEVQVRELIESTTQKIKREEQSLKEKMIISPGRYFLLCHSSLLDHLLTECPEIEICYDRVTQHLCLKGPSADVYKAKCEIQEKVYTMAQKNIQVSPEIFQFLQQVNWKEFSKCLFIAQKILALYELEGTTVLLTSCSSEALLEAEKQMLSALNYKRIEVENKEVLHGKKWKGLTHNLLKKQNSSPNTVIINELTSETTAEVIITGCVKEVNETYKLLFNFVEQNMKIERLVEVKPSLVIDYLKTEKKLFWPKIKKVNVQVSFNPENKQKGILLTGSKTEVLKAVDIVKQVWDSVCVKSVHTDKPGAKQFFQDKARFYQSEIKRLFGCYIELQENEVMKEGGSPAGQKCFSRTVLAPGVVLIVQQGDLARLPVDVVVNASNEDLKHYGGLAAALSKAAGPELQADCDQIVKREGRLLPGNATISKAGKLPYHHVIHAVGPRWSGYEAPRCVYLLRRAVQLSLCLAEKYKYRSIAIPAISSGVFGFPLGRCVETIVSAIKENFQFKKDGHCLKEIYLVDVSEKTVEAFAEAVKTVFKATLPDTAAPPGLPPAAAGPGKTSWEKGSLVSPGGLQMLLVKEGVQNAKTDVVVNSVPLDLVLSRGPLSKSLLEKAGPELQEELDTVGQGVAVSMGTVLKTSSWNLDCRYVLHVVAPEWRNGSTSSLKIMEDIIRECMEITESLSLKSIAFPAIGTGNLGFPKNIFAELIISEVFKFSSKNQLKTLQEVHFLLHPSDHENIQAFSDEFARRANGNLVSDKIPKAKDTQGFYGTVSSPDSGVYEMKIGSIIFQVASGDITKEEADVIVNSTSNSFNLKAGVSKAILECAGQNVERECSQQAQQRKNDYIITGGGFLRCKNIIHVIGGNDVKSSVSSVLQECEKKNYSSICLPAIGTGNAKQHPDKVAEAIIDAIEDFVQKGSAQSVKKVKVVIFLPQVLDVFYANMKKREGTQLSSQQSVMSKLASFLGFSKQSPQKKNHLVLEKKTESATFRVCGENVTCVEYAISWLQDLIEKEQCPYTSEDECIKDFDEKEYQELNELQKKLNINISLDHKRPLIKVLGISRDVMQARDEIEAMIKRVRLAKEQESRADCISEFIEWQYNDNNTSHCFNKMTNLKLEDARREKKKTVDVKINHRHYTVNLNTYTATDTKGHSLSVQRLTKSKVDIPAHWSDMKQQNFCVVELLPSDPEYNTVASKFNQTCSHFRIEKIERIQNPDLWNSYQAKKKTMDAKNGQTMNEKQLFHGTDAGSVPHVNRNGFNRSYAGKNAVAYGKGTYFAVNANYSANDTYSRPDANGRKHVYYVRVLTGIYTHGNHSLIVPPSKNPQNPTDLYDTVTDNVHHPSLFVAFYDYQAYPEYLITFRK

Chain of Cytochrome P450 2D6 (P10635 whole entry): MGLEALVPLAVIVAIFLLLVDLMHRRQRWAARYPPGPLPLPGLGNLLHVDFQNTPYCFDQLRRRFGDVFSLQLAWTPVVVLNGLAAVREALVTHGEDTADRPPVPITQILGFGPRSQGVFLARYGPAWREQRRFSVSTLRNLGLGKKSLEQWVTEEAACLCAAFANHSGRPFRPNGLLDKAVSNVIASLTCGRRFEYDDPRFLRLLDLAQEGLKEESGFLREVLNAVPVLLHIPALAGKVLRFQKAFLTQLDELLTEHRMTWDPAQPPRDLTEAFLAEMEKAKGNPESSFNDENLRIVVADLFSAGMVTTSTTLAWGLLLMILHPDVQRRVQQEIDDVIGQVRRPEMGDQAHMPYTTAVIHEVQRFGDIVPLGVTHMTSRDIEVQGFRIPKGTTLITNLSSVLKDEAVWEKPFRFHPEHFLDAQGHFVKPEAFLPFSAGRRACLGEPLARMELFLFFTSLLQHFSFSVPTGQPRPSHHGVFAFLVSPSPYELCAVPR

Q: Which Activity [1] does the source give for C[C@@H](C(=O)N1CCN(c2ncc(C(F)(F)F)cn2)CC1)n1cc2cccc(C(N)=O)c2n1 here?
A: Non-Toxic

Q: What about the Activity [2] of the same compound?
A: Non-Toxic

Q: What about the IC50 (CT26 [3]) of the same compound?
A: 36.1 µM

Q: And the inhibition in vivo at 6.25 mg/kg (CT26 [4])?
A: 42%

Q: And the Activity (CT26 [5])?
A: Dose-Dependent Effect

Q: And the half-life [6]?
A: 1.22 h

Q: What about the Activity (CT26 [7]) of the same compound?
A: Active

Q: And the AUC(0-inf) [8]?
A: 17000 ng·h/mL

Q: What about the inhibition in vivo at 12.5 mg/kg (CT26 [9]) of the same compound?
A: 53%

Q: What about the Activity (CT26 [10]) of the same compound?
A: Active

Q: And the Activity (CT26 [11])?
A: Active

Q: What about the Vd [12] of the same compound?
A: 0.978 L/kg

Q: What about the IC50 at 6 days [13] of the same compound?
A: > 50 µM

Q: And the Papp A→B [14]?
A: 25.7 ×10⁻⁶ cm/s

Q: And the half-life [15]?
A: 1.76 h

Q: What about the Tmax [16] of the same compound?
A: 0.5 h

Q: And the Activity (CT26 [17])?
A: Active

Q: What about the inhibition [18] of the same compound?
A: Dose-Dependent Effect

Q: What about the IC50 (Cytochrome P450 2D6) of the same compound?
A: > 30 µM

Q: What about the bioavailability [19] of the same compound?
A: 94.6%

Q: What about the inhibition in vivo at 25 mg/kg (CT26 [20]) of the same compound?
A: 83%

Q: And the Activity (CT26 [21])?
A: Dose-Dependent Effect

Q: What about the Activity [22] of the same compound?
A: Non-Toxic

Q: And the Activity (CT26 [23])?
A: Dose-Dependent Effect

Q: And the Cmax [24]?
A: 7350 ng/mL

Q: What about the MRT inf [25] of the same compound?
A: 1.52 h

Q: What about the Tmax [26] of the same compound?
A: 4.8 min

Q: What about the clearance [27] of the same compound?
A: 9.62 mL/min/kg

Q: And the IC50 [28]?
A: > 1.3 µM
